Test system: patients with Alzheimer's disease
Assay: Phase 3 study AB09004: change from baseline in ADCS-ADL score
Format: in vivo, human
Design: key to δLSM (ADCS-ADL): LSM difference in ADCS-ADL change; positive = improvement
Settings: 4.5 mg/kg/day; for ΔLSM (ADCS-ADL): vs placebo, week 24; for δLSM (ADCS-ADL): week 24 from baseline
Protocol: An international, multicenter, randomized, double-blind, placebo-controlled phase 3 study was conducted with the objective to evaluate oral masitinib at a dose of 4.5 mg/kg/day as a treatment for Alzheimer's disease.
Eligible patients, aged at least 50 years, were diagnosed with dementia of Alzheimer's type according to Diagnostic and Statistical Manual of Mental Disorders (DSM)-IV criteria, and probable Alzheimer's disease according to NINCDS-ADRDA (National Institute of Neurological and Communicative Diseases and Stroke/Alzheimer's Disease and Related Disorders Association) criteria. […] Patients with any other cause of dementia not due to Alzheimer's disease were ineligible for the study.
Eligible patients were treated during 24 weeks with masitinib at a dose of 4.5 mg/kg/day (mg per kilo body weight per day) or with placebo. Treatment was administered as add-on therapy in patients who had been treated for a minimum of 6 months with a stable dose of cholinesterase inhibitors (donepezil, rivastigmine or galantamine) and/or memantine, with no changes foreseen in therapy throughout the study.
Primary analysis was based on the co-primary endpoints of: • Change from baseline in Alzheimer's Disease Cooperative Study Activities of Daily Living (ADCS-ADL) score. The ADCS-ADL assesses the competence of patients with Alzheimer's disease in basic and instrumental activities of daily living (ADLs). • Change from baseline in Alzheimer's Disease Assessment Scale-Cognitive Subscale (ADAS-Cog). The ADAS-Cog assesses cognition and memory.
Treatment effect (masitinib versus placebo) was assessed based on absolute change from baseline to week 24 by using an analysis of covariance model (ANCOVA linear model) with the following factors: treatment, baseline value, and stratification criteria of baseline MMSE score, age, ADCS-ADL total score, and ADAS-Cog total score.
For ADCS-ADL, the global score (i.e., the sum of 23 items rated by the caregiver) was used with a range from 0 to 78, wherein 78 implies full functioning with no impairment. Thus, a higher score signifies greater functional ability, while a lower score signifies greater (worse) impairment. Results are expressed as a least-squares means difference (δLSM) of absolute change in ADCS-ADL score from baseline; that is to say, the change over time in the ADCS-ADL score, or in other words the difference between the ADCS-ADL score at baseline (before treatment initiation) and the ADCS-ADL score after treatment with masitinib or with placebo. An increase in ADCS-ADL score with respect to baseline (i.e., a positive δLSM) indicates an improvement in the patient and therefore disease stability, whereas a decrease in ADCS-ADL score with respect to baseline (i.e., negative δLSM) indicates a worsening in the patient and therefore disease progression. Treatment-effect is reported as the difference between treatment-arms (ΔLSM) (calculated as δLSM[masitinib] minus δLSM[placebo]), with a positive value indicating a beneficial effect of treatment with masitinib as compared to treatment with placebo. In a scenario where both treatment-arms show worsening in activities of daily living (i.e., a negative δLSM), then a positive ΔLSM indicates a beneficial treatment effect for masitinib, i.e., the rate of decline in masitinib treated patients is slower than that of patients from the placebo-arm.
The comparison was carried out using the following information: • δLSM: least-squares means difference of absolute change in endpoint score at week 24 from baseline, either according to ADAS-Cog assessment or to ADCS-ADL assessment. • ΔLSM: Difference between treatment-arms (treatment-effect) calculated as δLSM[masitinib] minus δLSM[placebo]. • Δsub/Δoverall: Ratio of subpopulation's placebo-controlled treatment-effect (ΔLSM at W24 for masitinib 4.5 mg/kg/d parallel arm) versus overall study population's placebo-controlled treatment-effect (ΔLSM at W24 for masitinib 4.5 mg/kg/d parallel arm). […]

[1] = Baseline ADCS-ADL >47 (Table 11)

## Cc1ccc(NC(=O)c2ccc(CN3CCN(C)CC3)cc2)cc1Nc1nc(-c2cccnc2)cs1 [masitinib, 4-(4-methylpiperazin-1-ylmethyl)-N-[4-methyl-3-(4-pyridin-3ylthiazol-2-ylamino)phenyl]benzamide]
Baseline ADAS-Cog >35
  ΔLSM (ADCS-ADL): −0.788 points
Baseline ADCS-ADL <32
  ΔLSM (ADCS-ADL): −0.9123 points
  δLSM (ADCS-ADL): 0.8656
Baseline ADCS-ADL <35
  ΔLSM (ADCS-ADL): 0.2942 points
  δLSM (ADCS-ADL): 0.9816
Baseline ADCS-ADL <38
  ΔLSM (ADCS-ADL): −0.2109 points
  δLSM (ADCS-ADL): 1.9901
Baseline ADCS-ADL <41
  ΔLSM (ADCS-ADL): 1.0592 points
  δLSM (ADCS-ADL): 3.2426
Baseline ADCS-ADL <47
  ΔLSM (ADCS-ADL): 0.9542 points
  δLSM (ADCS-ADL): 2.0776
Baseline ADCS-ADL <50
  ΔLSM (ADCS-ADL): +0.3062 points
  δLSM (ADCS-ADL): 1.5300
Baseline ADCS-ADL <50, listed as M4.5, 4.5 mg/kg/day
  ΔLSM (ADCS-ADL): 0.3062 points
Baseline ADCS-ADL >39
  ΔLSM (ADCS-ADL): +2.0733 points
  δLSM (ADCS-ADL): 0.6655
Baseline ADCS-ADL >39, listed as M4.5, 4.5 mg/kg/day
  ΔLSM (ADCS-ADL): 2.0733 points
[1]
  ΔLSM (ADCS-ADL): 2.1676 points
  δLSM (ADCS-ADL): 1.0869
Baseline ADCS-ADL >55
  ΔLSM (ADCS-ADL): +3.1871 points
  δLSM (ADCS-ADL): 0.8306
Baseline ADCS-ADL >55, listed as M4.5, 4.5 mg/kg/day
  ΔLSM (ADCS-ADL): 3.1871 points
Baseline ADCS-ADL ≤39
  ΔLSM (ADCS-ADL): +0.7132 points
  δLSM (ADCS-ADL): 2.8513
Baseline ADCS-ADL ≤39, listed as M4.5, 4.5 mg/kg/day
  ΔLSM (ADCS-ADL): 0.7132 points
Baseline ADCS-ADL ≤55
  ΔLSM (ADCS-ADL): +0.4577 points
  δLSM (ADCS-ADL): 1.3484
Baseline ADCS-ADL ≤55, listed as M4.5, 4.5 mg/kg/day
  ΔLSM (ADCS-ADL): 0.4577 points
Baseline ADCS-ADL ≥32
  ΔLSM (ADCS-ADL): 1.9799 points
  δLSM (ADCS-ADL): 0.9536
Baseline ADCS-ADL ≥35
  ΔLSM (ADCS-ADL): 2.0209 points
  δLSM (ADCS-ADL): 0.9909
Baseline ADCS-ADL ≥38
  ΔLSM (ADCS-ADL): +2.3285 points
  δLSM (ADCS-ADL): 1.0071
Baseline ADCS-ADL ≥38, listed as M4.5, 4.5 mg/kg/day
  ΔLSM (ADCS-ADL): 2.3285 points
Baseline ADCS-ADL ≥41
  ΔLSM (ADCS-ADL): 2.0192 points
  δLSM (ADCS-ADL): 0.8077
Baseline ADCS-ADL ≥47
  ΔLSM (ADCS-ADL): 2.1676 points
  δLSM (ADCS-ADL): 1.0869
Baseline ADCS-ADL ≥50
  ΔLSM (ADCS-ADL): +3.2315 points
  δLSM (ADCS-ADL): 0.7638
Baseline ADCS-ADL ≥50, listed as M4.5, 4.5 mg/kg/day
  ΔLSM (ADCS-ADL): 3.2315 points
MMSE <13
  ΔLSM (ADCS-ADL): −9.2849 points
  δLSM (ADCS-ADL): −10.9758
MMSE <14
  ΔLSM (ADCS-ADL): −3.5751 points
  δLSM (ADCS-ADL): −4.6507
MMSE <15
  ΔLSM (ADCS-ADL): −0.5657 points
  δLSM (ADCS-ADL): −3.1413
MMSE <16
  ΔLSM (ADCS-ADL): −0.6926 points
  δLSM (ADCS-ADL): −2.3199
MMSE <17
  ΔLSM (ADCS-ADL): 0.5605 points
  δLSM (ADCS-ADL): −1.0314
MMSE [12-20]
  ΔLSM (ADCS-ADL): +1.3770 points
MMSE [12-20], listed as M4.5, 4.5 mg/kg/day
  ΔLSM (ADCS-ADL): 1.3770 points

— patent US20240058328A1, “MASITINIB FOR THE TREATMENT OF ALZHEIMER'S DISEASE” (AB SCIENCE, priority 2020, published 2024)
